Experimental data from patent publication US6013667A, “Benzenesulfonylamine compounds, process for preparing them and pharmaceutical compositions” (Adir Et Compagnie, priority 1997, dated 2000).

How the values were obtained:
[1] = tested on: platelet aggregation induced by the TXA2 agonist, U 46619; assay: Platelet aggregation in man (platelet-rich plasma, induced by U 46619); assay type: cell-based; details: human PRP, U 46619 0.3 μM, read-out: IC50, inhibition of platelet aggregation induced by U 46619
Experimental: Platelet aggregation in man
Venous blood is obtained from human volunteers who have not taken any aspirin for at least 14 days prior to the experiment. The blood is taken onto sodium citrate (0.109 M) (1 vol. of citrate by 9 vol. of blood). The platelet-rich plasma (PRP) is obtained after centrifugation (20° C.) at 200×g for 10 minutes. The number of platelets is, on average, 250,000 PL/mm^3. The PRP is stored at room temperature until the time of the test and is used within 2 hours of the blood being taken. The antagonists are tested according to the procedure described in Example 19, using U 46619 at a concentration of 0.3 μM.

vascular TP-receptor = assay: Determination of the pA2 values of the antagonists towards TXA2 on rabbit saphene vein; design: species or system rabbit (New Zealand); details: rabbit saphene vein rings, 37° C., U 46619 10^-9 M to 10^-5 M, antagonist 20 minutes
Experimental: Determination of the pA2 Values of the Antagonists Towards TXA2 on Rabbit Saphene Vein
(§1) New Zealand rabbits (2.5 kg) are exsanguinated under anesthesia (pentobarbital, 30 mg/kg) and the saphene veins are rapidly removed and cut into 3-mm rings. These rings are mounted between two hooks in tanks thermostatically adjusted to 37° C., containing physiological saline (composition in mM: 118 NaCl; 25 NaHCO3; 10 glucose; 4.7 KCl; 1.25 CaCl2; 1.19 MgSO4; 1.14 KHPO4).
The physiological saline is bubbled with a mixture of 95% O2 /5% CO2. The lower hook constitutes the fixed point whereas the upper hook is connected to an isometric force sensor. The tissues are placed under a base tension of 1 gram. […]
After mounting, the preparations are left to stand for 90 minutes, with rinsing carried out every 30 minutes. After readjustment of the base tension, a contraction by a single dose of the TXA2 agonist, U 46619 at 10^-5 M, is induced in order to regularize the following contractions. […]
This EC50 is calculated routinely in the following way: the tension values are first converted into percentages relative to the maximum effect and these percentages are then plotted on a graph with the percentages on the Y-axis and the log (concentration) values on the X-axis. […] The concentration corresponding to the half-maximal effect (50%) can readily be calculated using the parameters of the straight line. […]

Rabbit saphene vein = assay: Non-endothelium-dependent relaxations in rabbit saphene vein; details: for IC50: Oryctolagus cuniculus, rabbit saphene vein, contraction with KCl (60 mM), read-out: 50% effective relaxant concentration (IC50)
Experimental: as §1
The physiological saline is bubbled with a mixture of 95% O2 /5% CO2. The lower hook constitutes the fixed point whereas the upper hook is connected to an isometric force sensor. The tissues are placed under a base tension of 1 gram. The pharmacological substances studied are prepared immediately before use. The drugs are dissolved in water or in dimethyl sulfoxide.
This EC50 is calculated routinely in the following way: the tension values are first converted into percentages relative to the maximum effect and these percentages are then plotted on a graph with the percentages on the Y-axis and the log (concentration) values on the X-axis. A linear regression is then carried out on the points between 10% and 90% (which corresponds to the linear part of the sigmoidal curve). The concentration corresponding to the half-maximal effect (50%) can readily be calculated using the parameters of the straight line. After washing and returning to the base line, the organ is placed in contact with the antagonist (8 different concentrations for each organ) for 20 minutes. A second effect/concentration curve is thus produced in the presence of the antagonist and the "treated" EC50 can then be calculated. This thus provides all the elements which allow the pA2 (competitive antagonism) or pD2 (non-competitive angatonism) to be calculated.
Determination of the Non-Endothelium-Dependent Relaxations in Rabbit Saphene Vein
Rabbit saphene veins are prepared and mounted as described in the above example. After stabilization, a contraction with KCl (60 mM) is induced. […] It is calculated as described in the above example.

## O=C(O)CCc1c(CCO[N+](=O)[O-])ccc2c1CCC(NS(=O)(=O)c1ccc(Cl)cc1)C2 (stereo not shown) [Example 2, 3-{6-[(4-Chlorophenylsulfonyl)amino]-2-(2-nitroxyethyl)-5,6,7,8-tetrahydronaphth-1-yl}propionic acid]
[1]
  IC50: 0.14 µM
Vascular TP-receptor
  pA2: 9.5
Rabbit saphene vein
  IC50: 10 µM

## O=C(O)CCc1c(CO[N+](=O)[O-])ccc2c1CCC(NS(=O)(=O)c1ccc(Cl)cc1)C2 (stereo not shown) [Example 4, 3-[6-(4-Chlorophenylsulfonyl)amino-2-nitroxymethyl-5,6,7,8-tetrahydronaphth-1-yl]propionic acid]
[1]
  IC50: 0.14 µM

## O=C(O)CCc1cc(CCO[N+](=O)[O-])cc2c1CCC(NS(=O)(=O)c1ccc(Cl)cc1)C2 (stereo not shown) [Example 6, 3-{6-[(4-Chlorophenylsulfonyl)amino]-3-(2-nitroxyethyl)-5,6,7,8-tetrahydronaphth-1-yl}propionic acid]
Vascular TP-receptor
  pA2: 9.8
Rabbit saphene vein
  IC50: 7.7 µM

## O=c1onc2cnc3ccccc3n12 [ODQ, reference compound]
Rabbit saphene vein; relaxations induced by the substances of the invention, ODQ
  inhibition of relaxations by guanylate cyclase inhibitor (in words): capable of inhibiting relaxations
